Test results reported in US10322126B2, “Solid dispersions of low-water solubility actives” (Bend Research, Inc., priority 2013, dated 2019).

Tests used:
[1] = cited from earlier work
[2] = Microcentrifuge dissolution test (simulated gastric buffer, then FaSSIF); format: physicochemical; details: 37° C.
Description: Dispersion 1 was evaluated in vitro using a microcentrifuge dissolution test using the following procedure. First, a sample of Dispersion 1 was placed in a microcentrifuge tube. A simulated gastric buffer (GB) solution consisting of 0.01 N HCl in water at 37° C. was added to each tube, so that the concentration if all of the active in the dispersion had dissolved would have been 2000 μg/mL. The tubes were vortexed for 1 minute. All work was performed in a temperature-controlled box at 37° C. After 9 minutes, the tubes were centrifuged at 13,000 rpm for 1 minute. A 50 μL centrifuged supernatant aliquot was removed from each tube and added to an HPLC vial containing 250 μL HPLC grade methanol. Following sample removal, the tubes were vortexed for 30 seconds. The tubes were allowed to sit undisturbed until the next sample, repeating the centrifuging/sampling/vortexing steps described above, to obtain a sample at 25 minutes following addition of the GB solution to the sample.
After 30 minutes in the GB solution, 0.8 mL of double strength (1 wt %) simulated intestinal fluid powder (SIF powder, available from Phares AG, Basel, Switzerland) in double strength phosphate buffer saline (0.166 M NaCl, 0.040 M Na2HPO4, and 0.093 M KH2PO4), adjusted to pH 6.5 was added to each tube. The tubes were vortexed for 1 minute. The testing solution composition was used to model fasted simulated intestinal fluid (FaSSIF). The FaSSIF powder contains bile salts (taurocholate) and phospholipids (lecithin) in a molar ratio of 4 to 1, along with buffers and osmotic adjusters. The concentration of active in each tube was 1000 μg/mL if all of the active had dissolved. After 3 minutes in the FaSSIF solution, the tubes were centrifuged at 13,000 rpm for 1 minute. A 50 μL centrifuged supernatant aliquot was removed, as previously described, and added to an HPLC vial containing 250 μL of methanol. The tube then was vortexed for 30 seconds, and left undisturbed until the next time point. The procedure was repeated to collect samples at 10, 20, 40, 90, and 180 minutes after addition of FaSSIF to the vials.
The dissolved concentrations of active were measured by HPLC. HPLC was performed using a Zorbax® SB-C18, 4.6×150 mm, 5 μm column at 30° C., and a mobile phase comprising 20 mM ammonium acetate/acetonitrile (43/57 vol/vol). The flow rate was 1.0 mL/min, 10 μL of each solution was injected, and the absorbance was measured at 332 nm.
Dispersion 2 was tested using the same procedures described above. Control 1 was tested using the same procedures described above.

C#Cc1cccc(Nc2ncnc3cc(OCCOC)c(OCCOC)cc23)c1 [Erlotinib, N-(3-ethynylphenyl)-6,7-bis(2-methoxyethoxy) quinazolin-4-amine]
solubility in phosphate buffered saline (pH 6.5) [1]: about 1 μg/mL | Dissolved Active Concentration ([2]; 10 minutes, GB solution (0.01 N HCl), 2000 μg/mL if all dissolved): 1,847.8 μg/mL | Dissolved Active Concentration ([2]; 25 minutes, GB solution (0.01 N HCl), 2000 μg/mL if all dissolved): 1,818.5 μg/mL | Dissolved Active Concentration ([2]; 34 minutes (4 min after addition of FaSSIF, pH 6.5), 1000 μg/mL if all dissolved): 58.0 µg/mL | Dissolved Active Concentration ([2]; 40 minutes (10 min after addition of FaSSIF, pH 6.5), 1000 μg/mL if all dissolved): 68.1 µg/mL | Dissolved Active Concentration ([2]; 50 minutes (20 min after addition of FaSSIF, pH 6.5), 1000 μg/mL if all dissolved): 51.4 µg/mL | Dissolved Active Concentration ([2]; 70 minutes (40 min after addition of FaSSIF, pH 6.5), 1000 μg/mL if all dissolved): 55.1 µg/mL | Dissolved Active Concentration ([2]; 120 minutes (90 min after addition of FaSSIF, pH 6.5), 1000 μg/mL if all dissolved): 67.8 µg/mL | Dissolved Active Concentration ([2]; 210 minutes (180 min after addition of FaSSIF, pH 6.5), 1000 μg/mL if all dissolved): 55.1 µg/mL
